Measurements as given in ChEMBL document CHEMBL6177980 (J Med Chem, 2025).
In brackets after ≈: the same amount, converted by molar mass. Activity calls are given as the source filed them. No cut-off for these calls is given here.

Experiments:
[1] = AUC (0 to t) in fasted Sprague-Dawley rat at 23 mg/kg, po by LC-MS/MS analysis; type: ADME, organism-based; details: in vivo
[2] = Stability of compound at pH 4.0 assessed as change in purity at 1 mg/ml incubated for 12 hrs by HPLC analysis; type: physicochemical; details: buffer, pH 4, 12 h
[3] = Stability of compound at pH 6.8 assessed as change in purity at 1 mg/ml incubated for 24 hrs by HPLC analysis; type: physicochemical; details: buffer, pH 6.8, 24 h
[4] = AUC (0 to t) in fasted Cynomolgus monkey at 11.6 mg/kg, po by LC-MS/MS analysis; type: ADME, organism-based, Macaca fascicularis; details: in vivo
[5] = Aqueous solubility of compound; type: physicochemical; details: aqueous medium
[6] = Cytotoxicity against African green monkey Vero cells; type: toxicity, cell-based; details: chlorocebus sabaeus
[7] = system: Mammarenavirus choriomeningitidis; experiment: In vivo antiviral activity against LCMV infected in C57BL/6-Prf1tm1Sdz/J mouse assessed as improvement in body weight loss at 1 to 5 mg/kg, po qd treated for 7 days; type: functional, organism-based; details: dose 1-5 mg/kg, time 7.0 day
[8] = system: Mammarenavirus choriomeningitidis; experiment: In vivo antiviral activity against LCMV infected in C57BL/6-Prf1tm1Sdz/J mouse assessed as animal survival rate at 1 to 5 mg/kg, po qd treated for 7 days relative to control; type: functional; details: dose 1-5 mg/kg, time 7 day
[9] = system: Mammarenavirus choriomeningitidis; experiment: In vivo antiviral activity against LCMV infected in C57BL/6-Prf1tm1Sdz/J mouse assessed as improvement in platelet count at 1 to 5 mg/kg, po qd treated for 7 days; type: functional, organism-based; details: dose 1-5 mg/kg, time 7.0 day
[10] = system: Mammarenavirus choriomeningitidis; experiment: Antiviral activity against LCMV infected in C57BL/6-Prf1tm1Sdz/J mouse assessed as reduction in viral copy number in spleen treated orally once daily for 7 days by RT-qPCR analysis; type: functional, organism-based; details: dose 1-5 mg/kg, route po, time 7.0 day
[11] = system: Mammarenavirus choriomeningitidis; experiment: Antiviral activity against LCMV infected in C57BL/6-Prf1tm1Sdz/J mouse assessed as reduction in viral copy number in liver treated orally once daily for 7 days by RT-qPCR analysis; type: functional, organism-based; details: dose 1-5 mg/kg, route po, time 7.0 day
[12] = system: Mammarenavirus choriomeningitidis; experiment: Antiviral activity against LCMV infected in C57BL/6-Prf1tm1Sdz/J mouse assessed as reduction in viral copy number in lung treated orally once daily for 7 days by RT-qPCR analysis; type: functional, organism-based; details: dose 1-5 mg/kg, route po, time 7.0 day
[13] = system: Mammarenavirus choriomeningitidis; experiment: Antiviral activity against LCMV infected in C57BL/6-Prf1tm1Sdz/J mouse assessed as reduction in viral titer in spleen treated orally once daily for 7 days by RT-qPCR analysis; type: functional, organism-based; details: dose 1-5 mg/kg, route po, time 7.0 day
[14] = system: Mammarenavirus choriomeningitidis; experiment: Antiviral activity against LCMV infected in C57BL/6-Prf1tm1Sdz/J mouse assessed as reduction in viral titer in kidney treated orally once daily for 7 days by RT-qPCR analysis; type: functional, organism-based; details: dose 1-5 mg/kg, route po, time 7.0 day
[15] = system: Mammarenavirus choriomeningitidis; experiment: In vivo antiviral activity against LCMV infected in C57BL/6-Prf1tm1Sdz/J mouse assessed as appearance of regular splenic nodule structure at 1 to 5 mg/kg, po qd for 7 days; type: functional, organism-based; details: dose 1-5 mg/kg, time 7.0 day
[16] = system: Mammarenavirus choriomeningitidis; experiment: In vivo antiviral activity against LCMV infected in C57BL/6-Prf1tm1Sdz/J mouse assessed as appearance of clear boundary between red and white pulp in spleen at 1 to 5 mg/kg, po qd for 7 days; type: functional, organism-based; details: dose 1-5 mg/kg, time 7.0 day
[17] = Stability in Beagle dog plasma administered orally or intravenously; type: ADME, cell-free, Canis lupus familiaris; details: po
[18] = Prodrug conversion in Sprague-Dawley rat liver microsomes assessed as parent nucleoside metabolite formation at 1 uM measured up to 60 mins in presence of NADPH/UDPGA by LC-MS/MS analysis; type: ADME, Microsome; details: 1 h
[19] = Prodrug conversion in C57BL/6J mouse liver microsomes assessed as parent nucleoside metabolite formation at 1 uM measured up to 60 mins in presence of BNPP/NADPH/UDPGA by LC-MS/MS analysis; type: ADME, Microsome; details: 1 h
[20] = Prodrug conversion in Beagle dog liver microsomes assessed as parent nucleoside metabolite formation at 1 uM measured up to 60 mins in presence of BNPP/NADPH/UDPGA by LC-MS/MS analysis; type: ADME, Canis lupus familiaris, Microsome; details: 1 h
[21] = Prodrug conversion in Sprague-Dawley rat plasma assessed as parent nucleoside metabolite formation at 1 uM measured up to 60 mins by LC-MS/MS analysis; type: ADME, cell-free; details: 1 h
[22] = Prodrug conversion in C57BL/6J mouse assessed as Cmax of 4'-Fluorouridine metabolite at 2 mg/kg, po by LC-MS/MS analysis; type: ADME, organism-based; details: in vivo
[23] = Prodrug conversion in C57BL/6J mouse assessed as Cmax of 4'-Fluorouridine metabolite at 6 mg/kg, po by LC-MS/MS analysis; type: ADME, organism-based; details: in vivo
[24] = Prodrug conversion in C57BL/6J mouse assessed as AUC (0 to t) of 4'-Fluorouridine metabolite at 6 mg/kg, po by LC-MS/MS analysis; type: ADME, organism-based; details: in vivo
[25] = Prodrug conversion in Sprague-Dawley rat assessed as Cmax of 4'-Fluorouridine metabolite at 2 mg/kg, po by LC-MS/MS analysis; type: ADME, organism-based; details: in vivo
[26] = Prodrug conversion in Sprague-Dawley rat assessed as AUC (0 to t) of 4'-Fluorouridine metabolite at 2 mg/kg, po by LC-MS/MS analysis; type: ADME, organism-based; details: in vivo
[27] = Prodrug conversion in Sprague-Dawley rat assessed as Cmax of 4'-Fluorouridine metabolite at 20 mg/kg, po by LC-MS/MS analysis; type: ADME, organism-based; details: in vivo
[28] = Prodrug conversion in Sprague-Dawley rat assessed as Cmax of 4'-Fluorouridine metabolite at 6 mg/kg/day, po treated for 7 days by LC-MS/MS analysis; type: ADME, organism-based; details: in vivo, 168 h, time 7 day
[29] = Prodrug conversion in Beagle dog assessed as AUC (0 to t) of 4'-Fluorouridine metabolite at 1 mg/kg, po by LC-MS/MS analysis; type: ADME, organism-based, Canis lupus familiaris; details: in vivo
[30] = Prodrug conversion in Beagle dog assessed as Cmax of 4'-Fluorouridine metabolite at 3 mg/kg/day, po treated for 7 days by LC-MS/MS analysis; type: ADME, organism-based, Canis lupus familiaris; details: in vivo, 168 h, time 7 day
[31] = Prodrug conversion in C57BL/6J mouse assessed as half life of 4'-Fluorouridine metabolite treated orally by LC-MS/MS analysis; type: ADME; details: in vivo, po
[32] = Prodrug conversion in Beagle dog assessed as half life of 4'-Fluorouridine metabolite treated orally or intravenously by LC-MS/MS analysis; type: ADME, Canis lupus familiaris; details: in vivo, po
[33] = Prodrug conversion in Sprague-Dawley rat assessed as 4'-Fluorouridine metabolite formation in liver at 6 mg/kg, po measured for 0.5 to 24 hrs by LC-MS/MS analysis; type: ADME, organism-based; details: in vivo, time 0.5-24 hrs
[34] = Prodrug conversion in Sprague-Dawley rat assessed as 4'-Fluorouridine metabolite formation in heart at 6 mg/kg, po measured for 0.5 to 24 hrs by LC-MS/MS analysis; type: ADME, organism-based; details: in vivo, time 0.5-24 hrs
[35] = Prodrug conversion in Sprague-Dawley rat assessed as 4'-Fluorouridine-NTP metabolite formation in thymus at 6 mg/kg, po measured for 0.5 to 24 hrs by LC-MS/MS analysis; type: ADME, organism-based; details: in vivo, time 0.5-24 hrs
[36] = target: Voltage-gated inwardly rectifying potassium channel KCNH2 (Homo sapiens, UniProt Q12809); experiment: Inhibition of hERG; type: toxicity
Voltage-gated inwardly rectifying potassium channel KCNH2, sequence (Q12809 whole entry): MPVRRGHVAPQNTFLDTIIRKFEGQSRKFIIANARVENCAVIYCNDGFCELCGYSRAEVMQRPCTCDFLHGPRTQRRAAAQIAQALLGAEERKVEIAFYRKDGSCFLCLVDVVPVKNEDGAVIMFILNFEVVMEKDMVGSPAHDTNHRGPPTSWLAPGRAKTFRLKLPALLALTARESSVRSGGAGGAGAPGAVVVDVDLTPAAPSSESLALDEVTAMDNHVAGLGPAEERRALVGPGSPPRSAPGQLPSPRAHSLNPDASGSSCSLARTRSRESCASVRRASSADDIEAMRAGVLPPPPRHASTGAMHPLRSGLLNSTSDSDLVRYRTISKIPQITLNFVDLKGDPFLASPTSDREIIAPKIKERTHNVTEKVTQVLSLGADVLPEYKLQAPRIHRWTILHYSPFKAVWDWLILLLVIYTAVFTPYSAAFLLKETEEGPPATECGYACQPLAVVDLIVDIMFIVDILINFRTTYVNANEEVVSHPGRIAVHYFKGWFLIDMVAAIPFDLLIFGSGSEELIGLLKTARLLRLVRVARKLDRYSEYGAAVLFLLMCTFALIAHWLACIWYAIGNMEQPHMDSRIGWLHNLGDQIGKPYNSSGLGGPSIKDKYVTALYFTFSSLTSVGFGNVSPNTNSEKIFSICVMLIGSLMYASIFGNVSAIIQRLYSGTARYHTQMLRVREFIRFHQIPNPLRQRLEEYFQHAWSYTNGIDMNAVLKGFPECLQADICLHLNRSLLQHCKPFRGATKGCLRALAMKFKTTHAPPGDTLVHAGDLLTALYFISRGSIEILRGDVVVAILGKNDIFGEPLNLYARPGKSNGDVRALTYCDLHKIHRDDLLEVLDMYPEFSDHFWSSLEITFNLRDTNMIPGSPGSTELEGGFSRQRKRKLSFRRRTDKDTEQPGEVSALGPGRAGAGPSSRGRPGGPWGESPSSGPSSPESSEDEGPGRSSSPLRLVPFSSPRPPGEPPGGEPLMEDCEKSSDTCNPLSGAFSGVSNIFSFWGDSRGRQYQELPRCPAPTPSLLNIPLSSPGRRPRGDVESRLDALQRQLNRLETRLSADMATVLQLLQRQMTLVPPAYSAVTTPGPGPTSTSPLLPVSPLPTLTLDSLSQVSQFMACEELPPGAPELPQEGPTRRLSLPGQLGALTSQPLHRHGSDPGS

## CC(C)C(=O)OC[C@@]1(F)O[C@@H](n2ccc(=O)n(COC(=O)c3cccnc3)c2=O)[C@H](OC(=O)C(C)C)[C@@H]1OC(=O)C(C)C
[1]
  AUC(0-t): 11800 ng·h/mL
[2]
  Activity: 0%
[3]
  Activity: -0.6%
[4]
  AUC(0-t): 15100 ng·h/mL
[5]
  solubility: 10 µg/mL (≈ 16.5 µM)
[6]
  CC50: > 100 µM
[7]
  Activity: Active
[8]
  Survival: 100%
[9]
  Activity: Active
[10]
  Activity: Dose-dependent-effect
[11]
  Activity: Dose-dependent-effect
[12]
  Activity: Dose-dependent-effect
[13]
  Activity: Dose-dependent-effect
[14]
  Activity: Dose-dependent-effect
[15]
  Activity: Active
[16]
  Activity: Active
[17]
  Stability: Unstable
[18]
  Drug metabolism: metabolite_detected
[19]
  Drug metabolism: metabolite_notdetected
[20]
  Drug metabolism: metabolite_notdetected
[21]
  Drug metabolism: metabolite_detected
[22]
  Cmax: 57 ng/mL
[23]
  Cmax: 266 ng/mL
[24]
  AUCt: 1729 ng·h/mL
[25]
  Cmax: 119 ng/mL
[26]
  AUCt: 962 ng·h/mL
[27]
  Cmax: 1142 ng/mL
[28]
  Cmax: 383 ng/mL
[29]
  AUCt: 257 ng·h/mL
[30]
  Cmax: 411 ng/mL
[31]
  t1/2: 12 h
[32]
  t1/2: 1 h
[33]
  Drug metabolism: metabolite_detected
[34]
  Drug metabolism: metabolite_detected
[35]
  Drug metabolism: metabolite_detected
[36]
  inhibition (INH): Not_active
